Source: ChEMBL document CHEMBL5214951, “Isatoic anhydrides as novel inhibitors of monoamine oxidase” (Bioorg Med Chem, 2022)
pIC50, pKi: −log10 of the molar value.

What was measured:
[1] = target: T1, Amine oxidase [flavin-containing] A (Homo sapiens, UniProt P21397)
T1 sequence (P21397 whole entry): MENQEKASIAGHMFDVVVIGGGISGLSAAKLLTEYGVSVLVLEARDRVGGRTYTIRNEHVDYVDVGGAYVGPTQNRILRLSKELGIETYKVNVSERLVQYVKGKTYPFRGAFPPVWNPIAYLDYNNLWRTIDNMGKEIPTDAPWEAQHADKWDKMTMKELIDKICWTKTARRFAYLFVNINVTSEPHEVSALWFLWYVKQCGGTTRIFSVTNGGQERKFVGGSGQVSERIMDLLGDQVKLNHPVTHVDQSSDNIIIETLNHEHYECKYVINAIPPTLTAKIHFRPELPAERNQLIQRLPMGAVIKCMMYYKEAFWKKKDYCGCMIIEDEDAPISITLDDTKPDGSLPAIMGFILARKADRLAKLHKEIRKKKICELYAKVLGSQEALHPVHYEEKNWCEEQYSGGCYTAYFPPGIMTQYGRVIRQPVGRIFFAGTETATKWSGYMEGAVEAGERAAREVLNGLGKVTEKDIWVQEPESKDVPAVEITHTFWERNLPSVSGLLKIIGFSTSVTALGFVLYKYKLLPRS

[2] = target: T2, Amine oxidase [flavin-containing] B (Homo sapiens, UniProt P27338)
T2 sequence (P27338 whole entry): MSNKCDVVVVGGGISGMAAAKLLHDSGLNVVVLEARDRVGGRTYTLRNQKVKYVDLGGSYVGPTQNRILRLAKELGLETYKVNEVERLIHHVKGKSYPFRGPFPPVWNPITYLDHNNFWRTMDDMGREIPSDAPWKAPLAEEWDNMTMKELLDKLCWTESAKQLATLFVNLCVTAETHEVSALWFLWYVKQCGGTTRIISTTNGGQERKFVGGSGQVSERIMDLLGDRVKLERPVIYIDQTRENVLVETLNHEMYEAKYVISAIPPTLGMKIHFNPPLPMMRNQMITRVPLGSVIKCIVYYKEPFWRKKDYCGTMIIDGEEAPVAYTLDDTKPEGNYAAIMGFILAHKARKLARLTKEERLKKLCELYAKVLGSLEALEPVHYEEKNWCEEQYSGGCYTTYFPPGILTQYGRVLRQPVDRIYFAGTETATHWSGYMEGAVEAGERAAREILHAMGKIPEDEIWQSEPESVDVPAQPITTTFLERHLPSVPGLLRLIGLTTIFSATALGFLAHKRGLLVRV

Acetylcholinesterase = Acetylcholinesterase (Homo sapiens, UniProt P22303); experiment: Inhibition of human recombinant AChE using S-acetylthiocholine as substrate by DTNB reagent based spectrophotometric analysis
Sequence of Acetylcholinesterase (P22303 whole entry): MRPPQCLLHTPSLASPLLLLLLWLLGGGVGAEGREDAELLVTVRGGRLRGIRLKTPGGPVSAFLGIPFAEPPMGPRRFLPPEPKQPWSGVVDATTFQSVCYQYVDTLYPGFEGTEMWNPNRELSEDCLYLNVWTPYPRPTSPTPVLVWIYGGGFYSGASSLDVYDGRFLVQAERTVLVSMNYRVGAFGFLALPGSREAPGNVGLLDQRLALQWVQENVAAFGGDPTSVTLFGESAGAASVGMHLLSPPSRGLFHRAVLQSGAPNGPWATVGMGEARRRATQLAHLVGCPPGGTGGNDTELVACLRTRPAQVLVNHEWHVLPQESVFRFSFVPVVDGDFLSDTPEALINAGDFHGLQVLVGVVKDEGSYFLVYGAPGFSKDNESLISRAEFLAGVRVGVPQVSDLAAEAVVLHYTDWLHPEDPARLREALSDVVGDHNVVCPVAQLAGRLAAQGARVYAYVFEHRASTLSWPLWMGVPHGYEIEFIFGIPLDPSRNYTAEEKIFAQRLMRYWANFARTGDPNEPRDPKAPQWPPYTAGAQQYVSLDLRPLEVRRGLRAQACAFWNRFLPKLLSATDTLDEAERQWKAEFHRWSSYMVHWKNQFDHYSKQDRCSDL

Cholinesterase = Cholinesterase (Equus caballus, UniProt P81908)
Sequence of Cholinesterase (P81908 whole entry): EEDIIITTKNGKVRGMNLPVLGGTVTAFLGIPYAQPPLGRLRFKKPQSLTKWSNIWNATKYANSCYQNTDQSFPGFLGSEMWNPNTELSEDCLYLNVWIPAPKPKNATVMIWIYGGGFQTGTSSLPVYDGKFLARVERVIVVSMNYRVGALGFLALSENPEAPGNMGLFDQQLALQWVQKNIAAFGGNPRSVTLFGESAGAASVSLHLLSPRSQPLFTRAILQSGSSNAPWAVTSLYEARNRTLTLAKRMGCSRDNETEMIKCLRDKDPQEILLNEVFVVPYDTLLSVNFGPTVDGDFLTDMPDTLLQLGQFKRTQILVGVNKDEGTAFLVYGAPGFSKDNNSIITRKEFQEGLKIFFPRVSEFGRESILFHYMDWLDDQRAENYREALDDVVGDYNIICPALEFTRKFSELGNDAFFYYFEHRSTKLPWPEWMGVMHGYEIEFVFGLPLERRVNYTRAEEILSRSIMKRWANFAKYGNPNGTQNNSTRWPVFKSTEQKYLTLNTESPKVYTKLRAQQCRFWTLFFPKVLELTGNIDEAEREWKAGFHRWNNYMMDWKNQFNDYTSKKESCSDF
Description: Inhibition of equine serum BuChE using S-butyrylthiocholine as substrate at by DTNB reagent based spectrophotometric analysis

D-amino-acid oxidase = D-amino-acid oxidase (Sus scrofa, UniProt P00371); experiment: Inhibition of porcine kidney DAAO using D-serine as substrate by Amplex red and horseradish peroxidase fluorescence assay
Sequence of D-amino-acid oxidase (P00371 whole entry): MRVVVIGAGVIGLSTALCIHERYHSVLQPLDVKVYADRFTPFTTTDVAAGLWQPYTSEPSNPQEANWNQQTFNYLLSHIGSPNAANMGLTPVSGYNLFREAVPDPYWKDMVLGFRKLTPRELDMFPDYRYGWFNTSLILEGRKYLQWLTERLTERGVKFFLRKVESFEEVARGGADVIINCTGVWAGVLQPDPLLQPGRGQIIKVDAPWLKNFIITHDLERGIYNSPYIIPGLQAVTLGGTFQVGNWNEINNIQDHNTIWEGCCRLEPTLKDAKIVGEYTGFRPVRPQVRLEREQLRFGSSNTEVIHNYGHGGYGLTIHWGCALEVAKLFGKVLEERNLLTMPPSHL

[3] = target: T2, Amine oxidase [flavin-containing] B; experiment: Competitive inhibition of human recombinant MAO-B assessed as inhibitory constant using varying levels of kynuramine as substrate by Lineweaver-burk plot analysis
[4] = target: T1, Amine oxidase [flavin-containing] A; experiment: Competitive inhibition of human recombinant MAO-A assessed as inhibitory constant using varying levels of kynuramine as substrate by Lineweaver-burk plot analysis

pIC50 (D-amino-acid oxidase) | pKi [3] | pKi [4] | Structure (SMILES) | pIC50 [1] | pIC50 [2] | pIC50 (Acetylcholinesterase) | pIC50 (Cholinesterase)
5.97 | – | – | COc1cc(/C=C/C(=O)CC(=O)/C=C/c2ccc(O)c(OC)c2)ccc1O [CURCUMIN] | – | – | – | –
– | 8.37 | 7.28 | O=c1[nH]c2ccc(OCc3ccccc3)cc2c(=O)o1 | 6.88 | 7.14 | – | –

The remaining lines, values behind:

Structure (SMILES) | pIC50 (D-amino-acid oxidase) | pKi [3] | pKi [4] | pIC50 [1] | pIC50 [2] | pIC50 (Acetylcholinesterase) | pIC50 (Cholinesterase)
O=c1[nH]c2ccc(OCc3cccc(Br)c3)cc2c(=O)o1 | – | – | – | 7.23 | 7.96 | – | –
CC(C)c1ccc(COc2ccc3[nH]c(=O)oc(=O)c3c2)cc1 | – | – | – | 8.00 | 7.12 | 4.26 | 4.68
Cc1cc(C(=O)O)n[nH]1 | 6.03 | – | – | – | – | – | –
O=c1[nH]c2ccc(OCc3cccc(I)c3)cc2c(=O)o1 | – | – | – | 7.37 | 7.85 | – | –
O=c1[nH]c2ccc(OCc3cccc(C(F)(F)F)c3)cc2c(=O)o1 | – | – | – | 7.08 | 8.33 | – | –
COc1cccc(COc2ccc3[nH]c(=O)oc(=O)c3c2)c1 | – | – | – | 7.03 | 7.74 | – | –
Cc1ccc(COc2ccc3[nH]c(=O)oc(=O)c3c2)cc1 | – | – | – | 7.21 | 8.19 | – | 4.72
O=c1[nH]c2ccc(OCc3ccc(Br)cc3)cc2c(=O)o1 | – | – | – | 8.02 | 8.16 | – | 4.70
O=c1[nH]c2ccc(OCc3ccc(F)cc3)cc2c(=O)o1 | – | – | – | 6.91 | 7.82 | 4.12 | –
O=c1[nH]c2ccc(OCc3ccc4ccccc4c3)cc2c(=O)o1 | – | – | – | 7.19 | 7.70 | – | 4.78
